{"source": "patent US20140038181A1", "about": "“CHEMICALLY SUBSTITUTED THERMOSENSITIVE PROBES AND COFACTORS FOR HOT START LIGATION” (TRILINK BIOTECHNOLOGIES, priority 2011, published 2014)", "key": {"[1]": {"tested_on": "complementary DNA target sequence", "experiment": "UV-melting temperature of complexes of acceptor probes with complementary DNA target sequence", "type": "physicochemical", "conditions": "2 μM oligonucleotides; for Tm: NaCl 137 mM, KCl 2.7 mM, phosphate buffer pH 7.4, 260 nm; for ΔTm (PDE - PTE): versus unsubstituted acceptor probe, pH 7.4"}, "[2]": {"experiment": "Thermal conversion of 2′,3′-substituted ATP to unsubstituted ATP in ligase buffer at 95° C. (HPLC)", "type": "physicochemical", "conditions": "1 mM 2′,3′-substituted ATP", "method": "The reactions were monitored by analysis of the aliquot of incubated mixture by reverse-phase and anion-exchange HPLC."}, "Tth DNA ligase": {"target": "Tth DNA ligase (Thermus thermophilus, UniProt P26996)", "sequence (P26996 whole entry)": "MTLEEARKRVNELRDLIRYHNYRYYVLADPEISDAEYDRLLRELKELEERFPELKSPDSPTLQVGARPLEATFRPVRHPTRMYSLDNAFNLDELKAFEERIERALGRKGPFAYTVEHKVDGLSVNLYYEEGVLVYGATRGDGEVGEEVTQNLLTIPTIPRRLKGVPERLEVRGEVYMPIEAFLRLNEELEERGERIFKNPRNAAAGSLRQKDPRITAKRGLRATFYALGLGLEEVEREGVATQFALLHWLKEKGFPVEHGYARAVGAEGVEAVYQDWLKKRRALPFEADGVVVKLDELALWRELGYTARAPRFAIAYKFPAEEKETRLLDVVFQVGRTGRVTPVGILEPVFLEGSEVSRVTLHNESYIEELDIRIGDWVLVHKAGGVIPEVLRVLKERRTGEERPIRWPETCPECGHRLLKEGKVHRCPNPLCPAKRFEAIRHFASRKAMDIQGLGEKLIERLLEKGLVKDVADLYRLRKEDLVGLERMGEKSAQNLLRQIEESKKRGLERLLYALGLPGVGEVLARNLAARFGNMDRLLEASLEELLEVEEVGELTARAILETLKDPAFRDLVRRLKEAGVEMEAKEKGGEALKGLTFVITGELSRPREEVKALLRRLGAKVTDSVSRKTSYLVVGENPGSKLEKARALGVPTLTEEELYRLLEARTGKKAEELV", "experiment": "Ligase reaction with OXT-SAP and unsubstituted NAD+ cofactor on matched and mismatched DNA template, PAGE analysis", "type": "biochemical", "method": "The ability of Tth DNA ligase to join an OXT-substituted acceptor and donor probes was assessed on a matched and mismatched DNA template in the presence of NAD+ cofactor (see Table 3 for the sequences employed). Each 20 μL reaction was performed in ligase buffer containing 50 mM Tris-HCl (pH 7.5), 10 mM MgCl2, 10 mM dithiothreitol, 25 μg/ml bovine serum albumin and 1 mM NAD+. The OXT-SAP, unsubstituted donor probe and DNA template were at equimolar 0.1 μM concentration. To prevent premature uncontrollable cleavage of the OXT groups from OXT-SAP, the preparation of the ligation mixture was performed in three steps.\nFirst, a binary template-donor complex was prepared by mixing the DNA template and donor strands in ligation buffer, heating the mixture at 95° C. for 2 min, slowly cooling to 4° C. over 15 min, and keeping mixture at 4° C. for 1 hour.\nSecond, the OXT-SAP was added to the mixture and allowed to stay at 4° C. for 12 hours.\nThird, a solutions of NAD+ in ligation buffer was added and ligation was initiated by adding 2 units of Tth DNA ligase to reaction mixture. Ligation proceeded at room temperature for 1 hr and analyzed by PAGE on TBE-Urea denaturing 15% gel (FIG. 12)."}, "T4 DNA ligase": {"target": "T1, T4 DNA ligase (Enterobacteria phage T4, UniProt P00970)", "T1 construct": "purchased New England Biolabs", "T1 sequence (P00970 whole entry, looked up)": "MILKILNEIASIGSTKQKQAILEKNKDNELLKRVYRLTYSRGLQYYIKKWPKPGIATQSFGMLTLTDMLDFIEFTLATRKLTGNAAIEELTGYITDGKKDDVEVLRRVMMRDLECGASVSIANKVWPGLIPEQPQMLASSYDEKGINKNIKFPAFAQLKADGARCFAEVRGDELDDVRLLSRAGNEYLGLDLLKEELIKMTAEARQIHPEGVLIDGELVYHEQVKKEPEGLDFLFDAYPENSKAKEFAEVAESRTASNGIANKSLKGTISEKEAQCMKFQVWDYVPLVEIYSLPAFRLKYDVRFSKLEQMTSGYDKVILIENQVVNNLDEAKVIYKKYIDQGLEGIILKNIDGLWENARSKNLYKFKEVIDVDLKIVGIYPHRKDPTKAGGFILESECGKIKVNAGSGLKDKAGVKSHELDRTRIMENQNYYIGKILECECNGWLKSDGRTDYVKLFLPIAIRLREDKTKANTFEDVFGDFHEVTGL", "type": "biochemical, bacteriophage T4"}}, "note": "In the oligonucleotide strings, read from the 5' end, every base follows the letter of its sugar. An asterisk marks phosphorothioate; unmarked linkages are phosphodiester. Other units and linkages are bracketed, terminal groups are in braces. A string of capitals states the bases alone. [OXT] = OXT-substituted phosphotriester internucleotide linkage; d = 2'-deoxy (DNA)", "data": [{"compound": "Single OXT2: TACTATGGTCCACACAACTATTG(OXT)C T (DNA dTdAdCdTdAdTdGdGdTdCdCdAdCdAdCdAdAdCdTdAdTdTdG[OXT]dCdT)", "values": [{"measurement": "Tm", "setting": "[1]", "result": 66.6, "unit": "°C"}, {"measurement": "ΔTm (PDE - PTE)", "setting": "[1]", "result": "−2.3", "unit": "°C"}]}, {"compound": "Double OXT23: TACTATGGTCCACACAACTATT(OXT)G(OXT)C T (DNA dTdAdCdTdAdTdGdGdTdCdCdAdCdAdCdAdAdCdTdAdTdT[OXT]dG[OXT]dCdT)", "values": [{"measurement": "Tm", "setting": "[1]", "result": 65.4, "unit": "°C"}, {"measurement": "ΔTm (PDE - PTE)", "setting": "[1]", "result": "−3.5", "unit": "°C"}]}, {"compound": "Nc1ncnc2c1ncn2[C@@H]1O[C@H](COP(=O)(O)OP(=O)(O)OP(=O)(O)O)[C@@H](OC2CCCO2)[C@H]1OC1CCCO1", "note": "(stereo partly shown) [—O(THF), 2′,3′-O-bis-tetrahydrofuranyl-adenosine-5′triphosphates]", "values": [{"measurement": "Concentration of unsubstituted ATP", "setting": "[2]; ligase buffer pH 7.5, 5 min", "result": 2.8, "unit": "µM"}, {"measurement": "Concentration of unsubstituted ATP", "setting": "[2]; ligase buffer pH 7.5, 10 min", "result": 4.6, "unit": "µM"}, {"measurement": "Concentration of unsubstituted ATP", "setting": "[2]; ligase buffer pH 7.5, 20 min", "result": 17.3, "unit": "µM"}, {"measurement": "Concentration of unsubstituted ATP", "setting": "[2]; ligase buffer pH 7.5, 45 min", "result": 72.7, "unit": "µM"}, {"measurement": "Concentration of unsubstituted ATP", "setting": "[2]; ligase buffer pH 7.5, 80 min", "result": 182.2, "unit": "µM"}]}, {"compound": "unsubstituted acceptor probe: CCCTGTTCCAGCGTCGGTGTTGCGTT (Table 3) (unmodified DNA)", "values": [{"measurement": "formation of ligation product", "setting": "Tth DNA ligase; matched template, additionally incubated 1 h at 75° C.", "result": "ample formation of ligation product"}, {"measurement": "formation of ligation product", "setting": "Tth DNA ligase; matched template, room temperature, 1 hr", "result": "efficient formation of ligation product"}, {"measurement": "formation of ligation product", "setting": "Tth DNA ligase; mismatched DNA template, 120 hrs of incubation", "result": "a small amount of ligation product was formed"}, {"measurement": "formation of ligation product", "setting": "Tth DNA ligase; mismatched DNA template, 120 hrs, additionally incubated 1 h at 75° C.", "result": "substantial accumulation of ligation product"}]}, {"compound": "Nc1ncnc2c1ncn2[C@@H]1O[C@H](COP(=O)(O)OP(=O)(O)OP(=O)(O)O)[C@@H](O)[C@H]1O", "note": "[unsubstituted ATP, ATP]", "values": [{"measurement": "formation of ligation product", "setting": "T4 DNA ligase", "result": "ample formation of 80(+)-mer ligation product"}]}, {"compound": "Single OXT1: TACTATGGTCCACACAACTATTGC (OXT)T (DNA dTdAdCdTdAdTdGdGdTdCdCdAdCdAdCdAdAdCdTdAdTdTdGdC[OXT]dT)", "values": [{"measurement": "Tm", "setting": "[1]", "result": 67.5, "unit": "°C"}, {"measurement": "ΔTm (PDE - PTE)", "setting": "[1]", "result": "−1.4", "unit": "°C"}]}, {"compound": "Double OXT12: TACTATGGTCCACACAACTATTG(OXT)C (OXT)T (DNA dTdAdCdTdAdTdGdGdTdCdCdAdCdAdCdAdAdCdTdAdTdTdG[OXT]dC[OXT]dT)", "values": [{"measurement": "Tm", "setting": "[1]", "result": 66.2, "unit": "°C"}, {"measurement": "ΔTm (PDE - PTE)", "setting": "[1]", "result": "−2.6", "unit": "°C"}]}, {"compound": "Unsubstituted: TACTATGGTCCACACAACTATTGCT (Table 7 acceptor probe) (DNA TACTATGGTCCACACAACTATTGCT; acceptor probe, label not given here) [reference compound]", "values": [{"measurement": "Tm", "setting": "[1]", "result": 68.9, "unit": "°C"}]}]}
